The target of series [1] is H-PGDS (Homo sapiens (Human), UniProt O60760). Description: H-PGDS Fluorescence Polarization Binding Assay (FPBA). Particulars: H-PGDS-MBP fusion enzyme, fluorescent probe, reduced glutathione 5 mM, 60-90 minutes at room temperature, 96-well format. Here is the method: H-PGDS Fluorescence Polarization Binding Assay This assay essentially is available from Cayman Chemical Company as Catalog item #600007. The test data reported for the aforementioned Examples (H-PGDS FPBA IC50) were generated using a 96-well, instead of the 384-well, format. […] Assays were performed in 96-well microtiter plates in 100 μL of total sample volume. Excitation and emission wavelengths appropriate for the employed detection analyte were used. […] Twelve clean microfuge tubes were labeled A1 through A12. […] Dimethyl sulfoxide (50 μL) was added to each of tubes A1 through A11. The HQL-79 control solution was serially diluted by removing 50 μL from tube A12 and placing it in tube A11 with subsequent thorough mixing of the contents of tube A11. Next, 50 μL was removed from tube A11 and was placed into tube A10 with subsequent thorough mixing of the contents of tube A10. This process was repeated for tubes A9 through A2. […] A test compound may be dissolved in DMSO, ethanol, or methanol at several concentrations when the titration endpoint is unknown. […] Assay cocktail (95 μL) was added to each plate well. DMSO (5 μL) from microfuge tube A1 was added to each plate well A1 and B1. Positive control solution (5 μL) from microfuge tube A2 was added to each plate well A2 and B2. Positive control solution (5 μL) from microfuge tube A3 was added to each plate well A3 and B3. This procedure was continued until all the positive control standard dilutions were aliquoted. Test compound solutions (5 μL) were added to the wells. […] The IC50 for a particular test compound was obtained by performing a full concentration titration versus a full concentration titration of positive control. Comparison of a single concentration of a test compound to the maximum binding well provided an assessment of the relative affinity of the test compound for H-PGDS-MBP. The plate was covered and incubated for 60-90 minutes at room temperature. The FP signal is stable for at least two hours. […] The measurements were taken in the fluorescent polarization mode with the z-height set to the middle of the well and the G-factor set to 1.13 on a Tecan Safire 2 reader.
(Polarisation of emitted light reports the rotation of a fluorescent probe.)

SMILES strings stand for the structures.

This passage reports IC50 and melting point results from patent US9126973B2, “Multiheteroaryl compounds as inhibitors of H-PGDS and their use for treating prostaglandin D2 mediated diseases” (Cayman Chemical Company, Incorporated, priority 2008, dated 2015).

Sequence of H-PGDS (O60760 whole entry, the tested form may be a part): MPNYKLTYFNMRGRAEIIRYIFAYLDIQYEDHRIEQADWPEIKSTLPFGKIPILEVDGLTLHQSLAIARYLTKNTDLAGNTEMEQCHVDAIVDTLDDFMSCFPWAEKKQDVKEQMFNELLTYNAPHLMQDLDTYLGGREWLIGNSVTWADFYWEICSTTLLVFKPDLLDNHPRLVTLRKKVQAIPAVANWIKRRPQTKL

As a reminder, the IC50 is the point on the concentration scale where inhibition reaches its midpoint. For `Cc1ccc(-c2cnc(-c3cccnc3)[nH]2)cn1` [Example 66, 2-methyl-5-(2-(pyridin-3-yl)-1H-imidazol-5-yl)pyridine], in series [1], the IC50 is above 10 µM.

Molecule `Cn1nnnc1-c1cnc(-c2ccccc2)nc1` [Example 73B, 5-(1-methyl-1H-tetrazol-5-yl)-2-phenylpyrimidine] gave an IC50 in series [1] of 20 µM.

A word on the melting point: it is the temperature, or range, at which the solid turns liquid. `c1ccc(Cn2cnc(-c3cnc(-c4ccccc4)nc3)c2)cc1` [Example 34, 5-(1-benzyl-1H-imidazol-4-yl)-2-phenylpyrimidine] yielded a melting point of 195 °C. This molecule yielded an IC50 in series [1] of 4 µM.

The molecule `c1ccc(-c2ncc(-c3nnc(-c4cccnc4)[nH]3)cn2)cc1` [Example 50, 2-phenyl-5-(5-(pyridin-3-yl)-1H-1,2,4-triazol-3-yl)pyrimidine] gave a melting point of 322 to 333 °C. The molecule further yielded an IC50 in series [1] of 1 µM.

With `c1ccc(-c2ncc(-c3cnc[nH]3)cn2)cc1` [Example 5, 5-(1H-imidazol-5-yl)-2-phenylpyrimidine], the melting point was 216 °C. The molecule further gave an IC50 in series [1] of 5 µM.

`c1ccc(-c2ncc(-c3ncc(-c4ccccc4)[nH]3)cn2)cc1` [Example 44, 2-phenyl-5-(5-phenyl-1H-imidazol-2-yl)pyrimidine] displayed a melting point of 238 °C. This molecule displayed an IC50 in series [1] of 2.8 µM.

As for `c1ccc(-c2ncc(-c3cnc(C4CCNCC4)[nH]3)cn2)cc1` [Example 18, 2-phenyl-5-(2-(piperidin-4-yl)-1H-imidazol-5-yl)pyrimidine], in series [1], the IC50 stood at 1 µM.

Molecule `Cc1nc(-c2ccccc2)sc1-c1cnc(-c2cccnc2)n1Cc1ccccc1` [Example 71, 5-(1-benzyl-2-(pyridin-3-yl)-1H-imidazol-5-yl)-4-methyl-2-phenylthiazole] displayed an IC50 in series [1] above 20 µM.

`c1ccc(-c2ncc(-c3ncco3)cn2)cc1` [Example 42, 2-(2-phenylpyrimidin-5-yl)oxazole] yielded a melting point of 175 to 177 °C. The molecule further displayed an IC50 in series [1] of 7.8 µM.

Regarding `c1ccc(-c2ncc(-c3cc(-c4cccnc4)n[nH]3)cn2)cc1` [Example 53, 2-phenyl-5-(3-(pyridin-3-yl)-1H-pyrazol-5-yl)pyrimidine], the IC50 in series [1] worked out at 1.3 µM. This counts as single-digit micromolar.

On to `Cc1ccc(-c2cnc(-c3cccnc3)n2Cc2ccccc2)cn1` [Example 66 (Step A), 5-(1-benzyl-2-(pyridin-3-yl)-1H-imidazol-5-yl)-2-methylpyridine], for which, in series [1], the IC50 is above 10 µM.

In the case of `CC(C)(C)OC(=O)N1CCCC(c2ncc(-c3cnc(-c4ccccc4)nc3)[nH]2)C1` (racemic) [Example 21, (±)-tert-butyl 3-(5-(2-phenylpyrimidin-5-yl)-1H-imidazol-2-yl)piperidine-1-carboxylate], the melting point stood at 130 °C. In addition, the IC50 in series [1] turned out to be 0.2 µM.

With `O=C(c1cccnc1)N1CCC(c2nc(-c3cnc(-c4ccccc4)nc3)c[nH]2)CC1` [Example 20, (4-(4-(2-phenylpyrimidin-5-yl)-1H-imidazol-2-yl)piperidin-1-yl)(pyridin-3-yl)methanone], the melting point was found to be 234 °C. This molecule also gave an IC50 in series [1] of 0.45 µM.

`c1ccc(Cn2c(-c3cnc(-c4ccccc4)nc3)cnc2-c2ccccc2)cc1` [Example 1 (Step C), 5-(1-benzyl-2-phenyl-1H-imidazol-5-yl)-2-phenylpyrimidine] came in with an IC50 in series [1] of 15 µM.

For the molecule `c1ccc(Oc2ncc(-c3cnc(-c4ccccc4)[nH]3)cn2)cc1` [Example 38, 2-phenoxy-5-(2-phenyl-1H-imidazol-5-yl)pyrimidine], the melting point came to 254 °C. The molecule also gave an IC50 in series [1] of 4 µM.

Take `c1ccc(-c2ncc(-c3csc(-c4ccccc4)n3)cn2)cc1` [Example 48, 2-phenyl-4-(2-phenylpyrimidin-5-yl)thiazole]: the melting point is 214.4 to 216.1 °C. This molecule also yielded an IC50 in series [1] above 20 µM.

As to `COCCCNC(=O)c1csc(-c2cnc(-c3ccccc3)nc2)n1` [Example 64, N-(3-methoxypropyl)-2-(2-phenylpyrimidin-5-yl)thiazole-4-carboxamide], the melting point lay in the range of 134 to 136 °C. Moreover, the IC50 in series [1] stood at 3.4 µM.

In turn, `O=C(O)c1cc(-c2cnc(Oc3ccccc3)nc2)[nH]n1` [Example 56, 5-(2-phenoxypyrimidin-5-yl)-1H-pyrazole-3-carboxylic acid] had an IC50 in series [1] of 5 µM.

The molecule `COc1ccc(-c2ncc(-c3cnc(-c4ccccc4)[nH]3)cn2)cc1OC` [Example 7, 2-(3,4-dimethoxyphenyl)-5-(2-phenyl-1H-imidazol-5-yl)pyrimidine] registered a melting point of 231 °C. In series [1], this molecule gave an IC50 of 3.5 µM.

Regarding `CC(=O)N1CCCC(c2nc(-c3cnc(-c4ccccc4)nc3)c[nH]2)C1` (centres unmarked) [1-(3-(4-(2-phenylpyrimidin-5-yl)-1H-imidazol-2-yl)piperidin-1-yl)ethanone], in series [1], the IC50 came out at 0.09 µM.

Regarding `c1ccc(-c2ncc(-c3cn(C(c4ccccc4)(c4ccccc4)c4ccccc4)cn3)cn2)cc1` [Example 34 (Step A), 2-phenyl-5-(1-trityl-1H-imidazol-4-yl)pyrimidine], the IC50 in series [1] is above 20 µM.

Consider `c1ccc(Cn2c(-c3ccccc3)cnc2-c2cnc(-c3ccccc3)nc2)cc1` [Example 44 (Step B), 5-(1-benzyl-5-phenyl-1H-imidazol-2-yl)-2-phenylpyrimidine], for which the IC50 in series [1] is 15 µM.

For `CNC(=O)N1CCCC(c2ncc(-c3cnc(-c4ccccc4)nc3)[nH]2)C1` (racemic) [Example 25B, (±)-N-methyl-3-(5-(2-phenylpyrimidin-5-yl)-1H-imidazol-2-yl)piperidine-1-carboxamide], the IC50 in series [1] is 0.3 µM. This IC50 lies about 50-fold lower than the previous one.

The molecule `CC(C)(C)OC(=O)N1CCC(c2ncc(-c3cnc(-c4ccccc4)nc3)[nH]2)C1` (racemic) [Example 28, (±)-tert-butyl 3-(5-(2-phenylpyrimidin-5-yl)-1H-imidazol-2-yl)pyrrolidine-1-carboxylate] registered a melting point of 219 °C.

For `O=C(N1CCCC(c2nc(-c3cnc(-c4ccccc4)nc3)c[nH]2)C1)C(F)(F)F` (racemic) [Example 27, (±)-2,2,2-trifluoro-1-(3-(4-(2-phenylpyrimidin-5-yl)-1H-imidazol-2-yl)piperidin-1-yl)methanone], in series [1], the IC50 was 0.09 µM.

`c1ccc(-c2cc(-c3cnc(-c4ccccc4)nc3)[nH]n2)cc1` [Example 45, 2-phenyl-5-(3-phenyl-1H-pyrazol-5-yl)pyrimidine] came in with an IC50 in series [1] of 1.5 µM. This IC50 lies about 17-fold higher than the previous one.

With `CNC(=O)N1CCCC(c2nc(-c3cnc(-c4ccccc4)nc3)cn2C(=O)NC)C1` (racemic) [Example 25A, (±)-N-methyl-3-(1-(methylcarbamoyl)-4-(2-phenylpyrimidin-5-yl)-1H-imidazol-2-yl)piperidine-1-carboxamide], the IC50 in series [1] was 0.62 µM. This IC50 lies about 2.4-fold lower than the previous one.

In series [1], `O=C(NCCN1CCOCC1)c1csc(-c2cnc(-c3ccccc3)nc2)n1` [Example 65, N-(2-morpholinoethyl)-2-(2-phenylpyrimidin-5-yl)thiazole-4-carboxamide] had an IC50 of 2.5 µM.

As to `CC(C)(C)OC(=O)N1CCC(n2nnc(-c3cnc(-c4ccccc4)nc3)n2)CC1` [Example 52, tert-butyl 4-(5-(2-phenylpyrimidin-5-yl)-2H-tetrazol-2-yl)piperidine-1-carboxylate], the melting point is 178 to 180 °C.

Take `CC(C)(C)OC(=O)N1CCC(c2ncc(-c3cnc(-c4ccccc4)nc3)[nH]2)CC1` [Example 17, tert-butyl 4-(5-(2-phenylpyrimidin-5-yl)-1H-imidazol-2-yl)piperidine-1-carboxylate]: the IC50 in series [1] was determined as 0.15 µM.

In series [1], `CC(C)(C)OC(=O)c1csc(-c2cnc(-c3ccccc3)nc2)n1` [Example 62, tert-butyl 2-(2-phenylpyrimidin-5-yl)thiazole-4-carboxylate] displayed an IC50 of 5.9 µM.

Take `c1ccc(-c2ncc(-c3ncc(-c4ccccc4)o3)cn2)cc1` [Example 47, 5-phenyl-2-(2-phenylpyrimidin-5-yl)oxazole]: the IC50 in series [1] was above 20 µM.

With `O=C(O)c1csc(-c2cnc(-c3ccccc3)nc2)n1` [Example 63, 2-(2-Phenylpyrimidin-5-yl)thiazole-4-carboxylic acid], in series [1], the IC50 is 1.1 µM.

With `OC(N1CCCC(c2ncc(-c3cnc(-c4ccccc4)nc3)[nH]2)C1)C(F)(F)F` (centres unmarked) [Example 24, 2,2,2-trifluoro-1-(3-(4-(2-phenylpyrimidin-5-yl)-1H-imidazol-2-yl)piperidin-1-yl)ethanol], the IC50 in series [1] worked out at 10 µM.

For `c1ccc(-c2ncc(-c3cnc(C4CCNC4)[nH]3)cn2)cc1` (racemic) [Example 30, (±)-2-phenyl-5-(2-(pyrrolidin-3-yl)-1H-imidazol-5-yl)pyrimidine], in series [1], the concentration for half-maximal inhibition (IC50) is 2 µM. Compared with the last molecule, the IC50 is about 5-fold lower.

In series [1], `Cn1nnc(-c2cnc(-c3ccccc3)nc2)n1` [Example 73A, 5-(2-methyl-2H-tetrazol-5-yl)-2-phenylpyrimidine] came in with an IC50 of 10 µM.
